Type in all cases: cell-based
The target in assay [1] is T1, DB+SCRM (control yeast) (Arabidopsis thaliana, UniProt Q9LSE2).
T1 construct: expressed in transfected cells; host or cells: yeast strain AH109
T1 sequence (Q9LSE2 1-494): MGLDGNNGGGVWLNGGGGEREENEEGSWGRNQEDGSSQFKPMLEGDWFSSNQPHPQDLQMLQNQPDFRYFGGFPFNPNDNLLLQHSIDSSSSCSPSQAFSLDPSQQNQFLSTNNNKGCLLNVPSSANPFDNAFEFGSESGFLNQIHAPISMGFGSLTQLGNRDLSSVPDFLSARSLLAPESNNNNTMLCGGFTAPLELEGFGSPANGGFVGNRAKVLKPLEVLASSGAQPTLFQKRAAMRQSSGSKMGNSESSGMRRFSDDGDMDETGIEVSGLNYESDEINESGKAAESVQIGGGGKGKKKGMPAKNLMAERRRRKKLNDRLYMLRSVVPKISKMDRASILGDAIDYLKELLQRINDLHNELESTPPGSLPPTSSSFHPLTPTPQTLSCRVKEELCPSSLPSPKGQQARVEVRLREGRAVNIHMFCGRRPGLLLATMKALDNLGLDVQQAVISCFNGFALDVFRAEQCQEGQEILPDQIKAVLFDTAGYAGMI
Nature of the assay: Y2H quantitative α-galactosidase assay, control yeast DB+SCRM. Conditions: media -WL, replicates #1-#3.

Assay [2] has as its target T2, MUTE+AD (control yeast) (Arabidopsis thaliana, UniProt Q9M8K6).
T2 construct: expressed in transfected cells; host or cells: yeast strain AH109
T2 sequence (Q9M8K6 1-202): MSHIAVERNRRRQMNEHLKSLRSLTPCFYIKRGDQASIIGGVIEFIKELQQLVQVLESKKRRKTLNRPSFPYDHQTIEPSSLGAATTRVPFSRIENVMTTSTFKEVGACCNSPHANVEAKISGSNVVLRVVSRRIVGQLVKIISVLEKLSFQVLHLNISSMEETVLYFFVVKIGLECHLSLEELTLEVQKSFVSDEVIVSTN
Nature of the assay: Y2H quantitative α-galactosidase assay, control yeast MUTE+AD. Conditions: media -WL, replicates #1-#3. The text has this: Supplement 41467_2024_53214_MOESM7_ESM.xlsx, sheet "Fig.S5" | column: Meristemoid

Assay [3] has as its target T3, SCRM-FAMA heterodimer (Arabidopsis thaliana, UniProt Q56YJ8).
T3 construct: truncated SPCH and FAMA proteins lacking their N-terminal domain were used in yeast; expressed in transfected cells; host or cells: yeast strain AH109
Nature of the assay: Y2H growth and quantitative α-galactosidase assay. Conditions: yeast FAMA∆N+SCRM, media -WLH, replicates #1-#3. Here is the method: (§1) Y2H assays were performed using the Matchmaker^TM Two-Hybrid System (Clontech). Bait (pGBKT7) and prey (pGADT7) constructs were co-transformed into the yeast strain AH109 using Frozen-EZ Yeast Transformation II Kit (Zymo Research, T2001). The resulting transformants were spotted on SD ( − Leu, −Trp) and SD ( − Trp, −Leu, −His) selection media containing different concentrations of 3-amino-1,2,4-triazole (Sigma, A8056) as previously reported. Quantitative α-galactosidase assay was also performed according to manufactural instruction (Clontech). Briefly, the transformants were incubated in 2 ml SD medium with 0, 10, 50 100 μM Stomidazolone (3) or SIM3* (7) with rotary shake (220 rpm) at 30 °C overnight. The cultured media containing yeast were transferred to microtubes and centrifuged to obtain the supernatant. The colorimetric assay was performed by incubating 8 μL of supernatant with 24 μL Assay Buffer that contains 0.5 M sodium acetate (pH 4.5) (Nakalai tesque, 31137-25): 100 mM p-nitrophenyl α-D-Galactopyranoside Solution (Sigma N0877) = 2:1 (v/v) at 30 °C for 60 min, then terminated by adding 960 μL 1X Stop Solution (0.1 M sodium carbonate, Fujifilm Wako 195-01582). After OD410 was recorded, α-galactosidase units were calculated according to the protocol (Clontech, P3024-1).

Assay [4] has as its target T4, SCRM-MUTE heterodimer (Arabidopsis thaliana, UniProt Q9M8K6).
T4 construct: expressed in transfected cells; host or cells: yeast strain AH109
T4 sequence (Q9M8K6 1-202): T2 sequence (Q9M8K6 1-202)
The experiment in a line: Y2H growth and quantitative α-galactosidase assay. Conditions: yeast MUTE+SCRM, media -WLH, replicates #1-#3. Here is the method:
as §1

In assay [5] the target is T5, SCRM-SPCH heterodimer (Arabidopsis thaliana, UniProt Q700C7).
T5 construct: truncated SPCH and FAMA proteins lacking their N-terminal domain were used in yeast; expressed in transfected cells; host or cells: yeast strain AH109
T5 sequence (Q700C7 98-364 limits assumed): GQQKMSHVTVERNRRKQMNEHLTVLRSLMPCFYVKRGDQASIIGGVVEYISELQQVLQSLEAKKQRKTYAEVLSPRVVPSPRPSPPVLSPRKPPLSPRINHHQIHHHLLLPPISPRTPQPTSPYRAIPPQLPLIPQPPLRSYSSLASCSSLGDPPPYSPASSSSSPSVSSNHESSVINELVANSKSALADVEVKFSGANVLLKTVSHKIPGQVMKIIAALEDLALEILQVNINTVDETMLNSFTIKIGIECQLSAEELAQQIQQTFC
The experiment in a line: Y2H growth and quantitative α-galactosidase assay. Conditions: yeast SPCH∆N+SCRM, media -WLH, replicates #1-#3. The protocol: as §1

Several values for one entry are separate records, joined by “and”; a condition that tells them apart may be missing. Equal values may be shown once.

T3 sequence (Q56YJ8 190-414, one chain of several): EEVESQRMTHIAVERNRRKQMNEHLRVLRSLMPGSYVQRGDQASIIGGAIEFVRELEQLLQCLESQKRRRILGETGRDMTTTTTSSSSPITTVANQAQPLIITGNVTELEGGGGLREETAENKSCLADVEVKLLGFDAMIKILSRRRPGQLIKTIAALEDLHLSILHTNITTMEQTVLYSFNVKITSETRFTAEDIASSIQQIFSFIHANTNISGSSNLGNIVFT

On to `Cc1nc(-c2ccccc2)c(NS(=O)(=O)c2ccccc2)o1` [SIM3*], for which the a-galactosidase is 0.04682 milliunits /(ml x cell) and 0.1024 milliunits /(ml x cell) and 0.1038 milliunits /(ml x cell) in assay [1] (10 µM); 0.1114 milliunits /(ml x cell) and 0.04747 milliunits /(ml x cell) and 0.1243 milliunits /(ml x cell) in assay [1] (50 µM); 0.1293 milliunits /(ml x cell) and 0.1919 milliunits /(ml x cell) and 0.06561 milliunits /(ml x cell) in assay [1] (100 µM); 0.05913 milliunits /(ml x cell) and 0.1128 milliunits /(ml x cell) and 0.06646 milliunits /(ml x cell) in assay [2] (10 µM); 0.06252 milliunits /(ml x cell) and 0.06546 milliunits /(ml x cell) and 0.1442 milliunits /(ml x cell) in assay [2] (50 µM); 0.1449 milliunits /(ml x cell) and 0.1698 milliunits /(ml x cell) and 0.1689 milliunits /(ml x cell) in assay [2] (100 µM). In addition, the a-galactosidase in assay [3] (10 µM) was 9.596 milliunits /(ml x cell) and 8.612 milliunits /(ml x cell) and 10.2528 milliunits /(ml x cell); in assay [3] (50 µM), 8.883 milliunits /(ml x cell) and 8.135 milliunits /(ml x cell) and 9.605 milliunits /(ml x cell); in assay [3] (100 µM) it was 8.9516 milliunits /(ml x cell) and 9.181 milliunits /(ml x cell) and 8.943 milliunits /(ml x cell); in assay [4] (10 µM) it was 6.318 milliunits /(ml x cell) and 6.221 milliunits /(ml x cell) and 6.24 milliunits /(ml x cell); in assay [4] (50 µM), 7.176 milliunits /(ml x cell) and 6.898 milliunits /(ml x cell) and 6.187 milliunits /(ml x cell); in assay [4] (100 µM), 6.801 milliunits /(ml x cell) and 6.285 milliunits /(ml x cell) and 6.027 milliunits /(ml x cell). For the same molecule, the a-galactosidase in assay [5] (10 µM) was 4.934 milliunits /(ml x cell) and 5.0596 milliunits /(ml x cell) and 4.687 milliunits /(ml x cell); in assay [5] (50 µM), 4.693 milliunits /(ml x cell) and 5.268 milliunits /(ml x cell) and 5.059 milliunits /(ml x cell); in assay [5] (100 µM) it was 6.071 milliunits /(ml x cell) and 5.524 milliunits /(ml x cell) and 5.145 milliunits /(ml x cell).

The values are drawn from PMC11500415, “Chemical inhibition of stomatal differentiation by perturbation of the master-regulatory bHLH heterodimer via an ACT-Like domain” (Nature Communications, 2024).
